In US10168338B2, “Methods of identifying modulators of sestrin-gator-2 interaction for modulating mTORC1 activity” (Whitehead Institute for Biomedical Research, priority 2014, dated 2019):
Blank lines part the entries; values can stand above or below the compound they belong to.

Legend:
[1] = target: T1, GATOR2-Sestrin2 interaction (Homo sapiens, UniProt P58004); assay: Sestrin2-GATOR2 interaction in HEK-293T cells after starvation/restimulation (co-immunoprecipitation); assay type: cell-based
T1 construct: To isolate the FLAG-WDR24/endogenous-Sestrin2 complex; endogenous in cells; host or cells: HEK-293T cells stably expressing FLAG-WDR24; Sestrin2 and the other GATOR2 subunits are endogenous
T1 sequence (P58004 1-480): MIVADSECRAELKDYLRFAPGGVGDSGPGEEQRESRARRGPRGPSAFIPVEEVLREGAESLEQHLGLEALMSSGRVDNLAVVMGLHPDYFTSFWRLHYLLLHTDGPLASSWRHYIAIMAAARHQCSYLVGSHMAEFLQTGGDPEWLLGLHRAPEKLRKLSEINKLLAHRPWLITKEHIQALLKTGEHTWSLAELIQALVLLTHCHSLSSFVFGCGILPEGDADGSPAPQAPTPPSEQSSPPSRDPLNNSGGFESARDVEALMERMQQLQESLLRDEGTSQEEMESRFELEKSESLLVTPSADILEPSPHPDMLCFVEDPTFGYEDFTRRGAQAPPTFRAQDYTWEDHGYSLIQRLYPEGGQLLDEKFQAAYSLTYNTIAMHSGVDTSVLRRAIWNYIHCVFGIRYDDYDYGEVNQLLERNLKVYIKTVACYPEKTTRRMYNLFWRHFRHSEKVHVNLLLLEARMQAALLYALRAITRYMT
Protocol: (§1) In order to determine the effect of amino acids on the GATOR2-Sestrin interaction, transfected cells were incubated in amino acid free RPMI for 50 minutes and then stimulated with amino acids for 10 minutes. For glucose starvation, cells were incubated in RPMI media lacking glucose but containing amino acids and dialyzed serum for 50 minutes, followed by a 10 minute restimulation with 5 mM D-Glucose. For insulin deprivation, cells were incubated in RPMI without serum for 50 minutes and restimulated with 1 μg/ml insulin for 10 minutes. Finally, when Torin1 or Rapamycin was used, cells were incubated with 250 nM of each throughout the starvation and restimulation period.
HEK-293T cells stably expressing FLAG-WDR24 or the control protein FLAG-metap2 (as described in Example 1) were starved for leucine, arginine, or all amino acids for 50 minutes. In some samples, cells were re-stimulated with leucine, arginine, or all amino acids for 10 minutes and then FLAG immunoprecipitates prepared from cell lysates. Immunoprecipitates and lysates were analyzed by immunoblotting for indicated proteins. Removal of either leucine or arginine from the cell media inhibited mTORC1 signaling, as indicated by S6K1 phosphorylation, to similar extents. Strikingly, however, only leucine starvation caused Sestrin2 to bind to GATOR2 inducing the interaction as effectively as complete amino acid starvation (FIG. 9A). […] Leucine starvation and stimulation also strongly regulated the interaction of endogenous Sestrin1, but not endogenous Sestrin3, with GATOR2 (Figure not shown).

Sestrin2 = target: T2, Sestrin2 (Homo sapiens, UniProt P58004); assay: [3H]-labeled amino acid binding to FLAG-Sestrin2 immunoprecipitated from HEK-293T cells; conditions: for Ki: 10 μM 3H-leucine, three experiments, read-out: inhibitory constant (Ki) for competing leucine binding to Sestrin2; for affinity for Sestrin2, times lower than the affinity of leucine: relative to leucine Kd
T2 construct: expressed in transfected cells; host or cells: HEK-293T, transient transfection of a pRK5-based cDNA plasmid, anti-FLAG immunoprecipitation
T2 sequence (P58004 1-480): T1 sequence (P58004 1-480)
Protocol: Four million HEK-293T cells were plated in a 15 cm plate four days prior to the experiment. Each plate yielded the protein for one sample. Forty-eight hours after plating, the cells were transfected via the polyethylenimine method (O. Boussif et al., PNAS (USA), 92:7297-7301 (1995)) with the pRK5-based cDNA expression plasmids indicated in the figures in the following amounts: 5 μgFLAG-Sestrin2; 12 μg of the negative control Rap2A; 5 μg WDR24; 2 μg WDR24 with 4 μg each of HA-Seh1L, HA-Sec13, HA-Mios, and HA-WDR59; 12 […] (CG11299-PD); 12 μgFLAG-Sestrin1.1; 12 μg FLAG-Sestrin1.2; 12 μg FLAG-Sestrin3; 12 μg FLAG-Sestrin2 mutants (L261A, E451A, S190A) and up to 20 μg total DNA with empty-PRK5. Forty-eight hours after transfection cells were lysed as described in Example 1. If multiple samples of the same type were represented in the experiment, the cell lysates were combined, mixed, and evenly distributed amongst the relevant tubes, to ensure equal protein amounts across samples of the same type.
Anti-FLAG immunoprecipitates were prepared as previously described, with the exception that, prior to incubation with lysates, the beads were blocked by rotating in 1 μg/μl bovine serum albumin (BSA) for 20 minutes at 4° C. and subsequently washed twice in lysis buffer. Thirty μl of the 50/50 slurry of beads in lysis buffer was added to each of the clarified cell lysates and incubated as previously described in Example 1.
For the binding assays, two tubes at a time were washed as previously indicated for immunoprecipitations. All the liquid was subsequently aspirated and a 15 μl aliquot of proteins bound to the beads was incubated for one hour on ice in cytosolic buffer (0.1% Triton, 40 mM HEPES pH 7.4, 10 mM NaCl, 150 mM KCl, 2.5 mM MgCl2) with the appropriate amount of [^3H]-labeled amino acids and unlabeled amino acids. Tubes were flicked every five minutes. At the end of one hour, the beads were briefly spun down, aspirated dry, and rapidly washed three times with binding wash buffer (0.1% Triton, 40 mM HEPES pH 7.4, 150 mM NaCl). The beads were aspirated dry again and resuspended in 85 μl of binding wash buffer. With a cut tip, each sample was mixed well and three 10 μl aliquots were separately quantified using a TriCarb® scintillation counter (PerkinElmer). This process was repeated in pairs for each sample, to ensure similar incubation and wash times for all samples analyzed across different experiments.
Amino acid affinities to Sestrin2 were determined by first normalizing the bound [^3H]-labeled amino acid concentrations across three separate binding assays performed with varying amounts of unlabeled amino acid competition. These values were plotted and fit to a hyperbolic equation ([…]) to estimate the IC50 value. Kd or Ki values were derived from the IC50 value using the equation: Kd or Ki=IC50/(1+([[^3H]Leucine])/Kd).

[2] = target: T3, Sestrin-GATOR2 interaction (Homo sapiens, UniProt P58004); assay: Effect of specific amino acids on Sestrin-GATOR2 interaction (FLAG-WDR24 immunoprecipitation, immunoblot); assay type: cell-based; conditions: HEK-293T stably expressing FLAG-WDR24; starvation/restimulation, pre- or post-lysis addition, washes of immunoprecipitates
T3 construct: To isolate the FLAG-WDR24/endogenous-Sestrin2 complex; endogenous in cells; host or cells: HEK-293T cells stably expressing FLAG-WDR24; Sestrin2 and the other GATOR2 subunits are endogenous
T3 sequence (P58004 1-480): T1 sequence (P58004 1-480)
Protocol: In order to further explore if specific amino acid levels affected the Sestrin-GATOR2 interaction, HEK-293T cells stably expressing the FLAG-tagged GATOR2 component WDR24 (and FLAG-tagged metap2 as a control) were starved of either all amino acids (ALL); only leucine, arginine, and lysine (LRK); only leucine (L); only arginine (R); or only lysine (K) for 50 minutes, or starved for 50 minutes and restimulated for 10 minutes with the indicated amino acids.
HEK-293T cells stably expressing the FLAG-tagged GATOR2 component WDR24 were starved of all amino acids for 50 minutes. Individual amino acids were added pre-lysis to the cell culture media or post-lysis to cell lysates prior to FLAG immunoprecipitation.
Finally, HEK-293T cells stably expressing the FLAG-tagged GATOR2 component WDR24 were starved of all amino acids for 50 minutes. Immunoprecipitates were subjected to washes containing the indicated amounts of leucine or arginine and analyzed along with cell lysates by immunoblotting for the indicated proteins as shown in FIG. 8C.

mTORC1 = mTORC1 signaling in HEK-293T cells (S6K1 phosphorylation immunoblot); assay type: cell-based, human; conditions: v-ATPase inhibition
Protocol: Immunoprecipitated proteins were denatured by the addition of 50 μl of sample buffer and boiling for 5 minutes as described (Kim et al., 2002), resolved by 8%-16% SDS-PAGE, and analyzed by immunoblotting using the appropriate antibody (antibodies to phospho-T389 S6K1, S6K1, Sestrin2, mTOR, Mios and FLAG all obtained from Cell Signaling Technology; antibodies to WDR24 and WDR59 were generously provided by Jianxin Xie at Cell Signaling Technology).
as §1

Sestrin2-GATOR2 complex = target: T4, Sestrin2-GATOR2 complex (Homo sapiens, UniProt P58004); assay: Amino acids added directly to immunopurified Sestrin2-GATOR2 complexes (immunoblot); assay type: binding; conditions: for effect on the Sestrin2-GATOR2 interaction in vitro: 300 μM each, added directly to FLAG immunoprecipitates; for concentration acting on Sestrin2-GATOR2 complex, fold greater than leucine: added to purified complexes, relative to leucine
T4 construct: To isolate the FLAG-WDR24/endogenous-Sestrin2 complex; endogenous in cells; host or cells: HEK-293T cells stably expressing FLAG-WDR24; Sestrin2 and the other GATOR2 subunits are endogenous
T4 sequence (P58004 1-480): T1 sequence (P58004 1-480)
Protocol: We next tested if leucine acts directly on the Sestrin2-GATOR2 complex.
HEK-293T cells stably expressing FLAG-WDR24 were starved for all amino acids for 50 minutes, lysed and subjected to anti-FLAG immunoprecipitation as described previously. The GATOR2-Sestrin2 complexes immobilized on the agarose beads were washed twice in lysis buffer with 500 mM NaCl, as previously described, and then incubated for 10 minutes in 1 mL of cytosolic buffer with the indicated concentrations of individual amino acids. The amount of GATOR2 and Sestrin2 that remained bound was assayed by SDS-PAGE and immunoblotting as described previously.

Compound: CCC(=O)N1CCN(c2ccc(-n3c(=O)ccc4cnc5ccc(-c6cnc7ccccc7c6)cc5c43)cc2C(F)(F)F)CC1 [Torin1]
- effect of pretreatment on the amino acid-induced decrease in the GATOR2-Sestrin2 interaction ([1]; 250 nM throughout starvation and restimulation): did not prevent the amino acid-induced decrease in the GATOR2-Sestrin2 interaction

Compound: N=C(N)NCCC[C@H](N)C(=O)O [arginine]
- binding of radiolabeled amino acid to Sestrin2 (Sestrin2; FLAG-Sestrin2 from HEK-293T, competed by excess unlabeled leucine): did not bind
- disruption of the Sestrin-GATOR2 interaction [2]: but not arginine or lysine, disrupts the Sestrin-GATOR2 interaction

Compound: C/C=C/[C@H]1O[C@@](O)([C@@H](C)[C@H](O)[C@H](C)[C@H]2OC(=O)/C(OC)=C/C(C)=C/[C@@H](C)[C@@H](O)[C@@H](CC)[C@@H](O)[C@H](C)C/C(C)=C/C=C/[C@@H]2OC)C[C@@H](O[C@H]2C[C@@H](O)[C@H](OC(N)=O)[C@@H](C)O2)[C@@H]1C [concanamycin A]
- effect on mTORC1 signaling (mTORC1): decreased mTORC1 signaling
- effect on the interaction between Sestrin2 and GATOR2 ([1]; in the absence of amino acids): reduced the interaction between Sestrin2 and GATOR2

- Ki (Sestrin2): 616 ± 273 µM
- affinity for Sestrin2, times lower than the affinity of leucine (Sestrin2): ~30 times
- concentration acting on Sestrin2-GATOR2 complex, fold greater than leucine (Sestrin2-GATOR2 complex): ~25 fold
Compound: CC[C@H](C)[C@H](N)C(=O)O [isoleucine]
- effect on the Sestrin2-GATOR2 interaction in vitro (Sestrin2-GATOR2 complex): had any effect on the Sestrin2-GATOR2 interaction

Compound: NCCCC[C@H](N)C(=O)O [lysine]
- disruption of the Sestrin-GATOR2 interaction [2]: but not arginine or lysine, disrupts the Sestrin-GATOR2 interaction

- Ki (Sestrin2): 354 ± 118 µM
- affinity for Sestrin2, times lower than the affinity of leucine (Sestrin2): approximately 18 times
- concentration acting on Sestrin2-GATOR2 complex, fold greater than leucine (Sestrin2-GATOR2 complex): approximately 10 fold
Compound: CSCC[C@H](N)C(=O)O [methionine]
- effect on the Sestrin2-GATOR2 interaction in vitro (Sestrin2-GATOR2 complex): had any effect on the Sestrin2-GATOR2 interaction

Compound: CC(C)[C@H](N)C(=O)O [valine]
- effect on the Sestrin2-GATOR2 interaction in vitro (Sestrin2-GATOR2 complex): had any effect on the Sestrin2-GATOR2 interaction

Compound: insulin
- regulation of the Sestrin2-GATOR2 interaction by insulin treatment ([1]; serum-free 50 minutes, 1 μg/ml insulin 10 minutes): did not regulate the Sestrin2-GATOR2 interaction
